Values of other authors, collected in patent US11873519B2, “Composition for preventing age-related metabolic and tissue degenerative changes” (priority 2017, dated 2024).

Tested on: Ewing's sarcoma PDOX

L-methionine α-deamino-γ-mercaptomethane lyase [rMETase]
Serum and tumor MET levels versus controls: lower | Tumor growth compared to untreated control mice: effectively reduced tumor growth
